Common to all, as to format: biochemical
Assay [1] addresses T1, hMMP8 (APMA-activated pro-MMP8) (Homo sapiens, UniProt P22894).
T1 construct: purchased Calbiochem
Briefly: MMP8 isolated enzyme assay (fluorogenic substrate). Particulars: 90 min, 35° C. The protocol: Purified pro-MMP8 is purchased from Calbiochem. The enzyme (at 10 μg/ml) is activated by p-amino-phenyl-mercuric acetate (APMA) at 1 mM for 2.5 h, 35° C. The activated enzyme can be used to monitor inhibitors of activity as follows: MMP8 (200 ng/ml final concentration) is incubated for 90 minutes at 35° C. (80% H2O) with the synthetic substrate Mca-Pro-Cha-Gly-Nva-His-Ala-Dpa-NH2 (12.5 μM) in assay buffer (0.1 M “Tris-HCl” (trade mark) buffer, pH 7.5 containing 0.1M NaCl, 30 mM CaCl2, 0.040 mM ZnCl and 0.05% (w/v) “Brij 35” (trade mark) detergent) in the presence (10 concentrations) or absence of inhibitors. Activity is determined by measuring the fluorescence at λex 320 nm and λem 405 nm. Percent inhibition is calculated as follows: % Inhibition is equal to the [Fluorescenceplus inhibitor−Fluorescencebackground] divided by the [Fluorescenceminus inhibitor−Fluorescencebackground]. MMP9

Assay [2] concerns the target T2, Recombinant human MMP12 catalytic domain (Homo sapiens, UniProt P39900).
T2 construct: Recombinant human MMP12 catalytic domain; made in house
Briefly: MMP12 isolated enzyme assay (fluorogenic substrate). Particulars: 60 min, room temperature, read-out: hMMP12 IC50. On the procedure: Recombinant human MMP12 catalytic domain may be expressed and purified as described by Parkar A. A. et al, (2000), Protein Expression and Purification, 20, 152. The purified enzyme can be used to monitor inhibitors of activity as follows: MMP12 (50 ng/ml final concentration) is incubated for 60 minutes at room temperature with the synthetic substrate Mca-Pro-Cha-Gly-Nva-His-Ala-Dpa-NH2 (10 μM) in assay buffer (0.1M “Tris-HCl” (trade mark) buffer, pH 7.3 containing 0.1M NaCl, 20 mM CaCl2, 0.020 mM ZnCl and 0.05% (w/v) “Brij 35” (trade mark) detergent) in the presence (10 concentrations) or absence of inhibitors. Activity is determined by measuring the fluorescence at λex 320 nm and λem 405 nm. Percent inhibition is calculated as follows: % Inhibition is equal to the [Fluorescenceplus inhibitor−Fluorescencebackground] divided by the [Fluorescenceminus inhibitor−Fluorescencebackground]. MMP8

The target of assay [3] is T3, Recombinant human MMP14 catalytic domain (Homo sapiens, UniProt P50281).
T3 construct: Recombinant human MMP14 catalytic domain; made in house
Briefly: MMP14 isolated enzyme assay (fluorogenic substrate). The following applies: 60 min, room temperature, read-out: hMMP14 IC50. The protocol: Recombinant human MMP14 catalytic domain may be expressed and purified as described by Parkar A. A. et al, (2000), Protein Expression and Purification, 20, 152. The purified enzyme can be used to monitor inhibitors of activity as follows: MMP14 (10 ng/ml final concentration) is incubated for 60 minutes at room temperature with the synthetic substrate Mca-Pro-Cha-Gly-Nva-His-Ala-Dpa-NH2 (10 μM) in assay buffer (0.1M “Tris-HCl” (trade mark) buffer, pH 7.5 containing 0.1M NaCl, 20 mM CaCl2, 0.020 mM ZnCl and 0.05% (w/v) “Brij 35” (trade mark) detergent) in the presence (5 concentrations) or absence of inhibitors. Activity is determined by measuring the fluorescence at λex 320 nm and λem 405 nm. Percent inhibition is calculated as follows: % Inhibition is equal to the [Fluorescenceplus inhibitor−Fluorescencebackground] divided by the [Fluorescenceminus inhibitor−Fluorescencebackground].

Assay [4] addresses T4, Recombinant human MMP9 catalytic domain (Homo sapiens, UniProt P14780).
T4 sequence (P14780 with tags, fused parts or gaps DEL216-390 limits assumed): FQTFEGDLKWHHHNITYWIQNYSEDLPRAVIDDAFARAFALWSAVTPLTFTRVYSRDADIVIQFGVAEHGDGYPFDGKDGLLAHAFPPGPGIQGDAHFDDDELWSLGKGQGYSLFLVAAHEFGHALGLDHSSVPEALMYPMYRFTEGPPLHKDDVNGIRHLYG
As to the kind of experiment: MMP9 isolated enzyme assay (fluorogenic substrate). The following applies: 30 min, RT, read-out: hMMP9 IC50. The protocol:
Recombinant human MMP9 catalytic domain was expressed and then purified by Zn chelate column chromatography followed by hydroxamate affinity column chromatography. The enzyme can be used to monitor inhibitors of activity as follows: MMP9 (5 ng/ml final concentration) is incubated for 30 minutes at RT with the synthetic substrate Mca-Pro-Cha-Gly-Nva-His-Ala-Dpa-NH2 (5 μM) in assay buffer (0.1M “Tris-HCl” (trade mark) buffer, pH 7.3 containing 0.1M NaCl, 20 mM CaCl2, 0.020 mM ZnCl and 0.05% (w/v) “Brij 35” (trade mark) detergent) in the presence (10 concentrations) or absence of inhibitors. Activity is determined by measuring the fluorescence at […]. Percent inhibition is calculated as follows: % Inhibition is equal to the [Fluorescenceplus inhibitor−Fluorescencebackground] divided by the [Fluorescenceminus inhibitor−Fluorescencebackground]. MMP14

Assay [5] has as its target T5, Recombinant human MMP19 catalytic domain (Homo sapiens, UniProt Q99542).
T5 construct: Recombinant human MMP19 catalytic domain; made in house
As to the kind of experiment: MMP19 isolated enzyme assay (fluorogenic substrate). The following applies: 120 min, 35° C., read-out: hMMP19 IC50. On the procedure: Recombinant human MMP19 catalytic domain may be expressed and purified as described by Parkar A. A. et al, (2000), Protein Expression and Purification, 20:152. The purified enzyme can be used to monitor inhibitors of activity as follows: MMP19 (40 ng/ml final concentration) is incubated for 120 minutes at 35° C. with the synthetic substrate Mca-Pro-Leu-Ala-Nva-Dpa-Ala-Arg-NH2 (5 μM) in assay buffer (0.1M “Tris-HCl” (trade mark) buffer, pH 7.3 containing 0.1M NaCl, 20 mM CaCl2, […] ZnCl and 0.05% (w/v) “Brij 35” (trade mark) detergent) in the presence (5 concentrations) or absence of inhibitors. Activity is determined by measuring the fluorescence at λex 320 nm and λem 405 nm. Percent inhibition is calculated as follows: % Inhibition is equal to the [Fluorescenceplus inhibitor−Fluorescencebackground] divided by the [Fluorescenceminus inhibitor−Fluorescencebackground].

IC50 data for three compounds are collected here from patent US7655664B2, “Hydantoin derivatives as metalloproteinase inhibitors” (AstraZeneca AB, priority 2004, dated 2010).

T1 sequence (P22894 101-467): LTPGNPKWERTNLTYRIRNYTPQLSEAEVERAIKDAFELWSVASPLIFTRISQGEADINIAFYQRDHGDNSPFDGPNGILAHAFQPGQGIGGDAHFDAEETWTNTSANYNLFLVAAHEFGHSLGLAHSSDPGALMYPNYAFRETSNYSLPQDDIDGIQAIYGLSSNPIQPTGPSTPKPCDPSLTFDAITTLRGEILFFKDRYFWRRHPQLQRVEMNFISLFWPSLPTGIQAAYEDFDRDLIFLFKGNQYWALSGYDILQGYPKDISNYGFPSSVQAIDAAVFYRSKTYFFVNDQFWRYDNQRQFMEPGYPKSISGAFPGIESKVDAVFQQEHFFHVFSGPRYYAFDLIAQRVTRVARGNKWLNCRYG
T2 sequence (P39900 106-263 limits assumed): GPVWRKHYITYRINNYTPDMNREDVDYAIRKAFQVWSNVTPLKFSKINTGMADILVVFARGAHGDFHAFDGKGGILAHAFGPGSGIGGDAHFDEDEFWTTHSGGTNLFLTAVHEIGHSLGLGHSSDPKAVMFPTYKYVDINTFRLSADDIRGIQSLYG
T5 sequence (Q99542 98-256 limits assumed): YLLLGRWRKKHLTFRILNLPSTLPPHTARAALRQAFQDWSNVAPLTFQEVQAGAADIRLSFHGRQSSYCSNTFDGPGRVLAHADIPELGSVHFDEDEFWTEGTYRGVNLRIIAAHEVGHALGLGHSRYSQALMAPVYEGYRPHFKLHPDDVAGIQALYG

As for `C[C@]1(CS(=O)(=O)N2CCc3cc(-c4cnc(C5CC5)nc4)ccc3C2)NC(=O)NC1=O` [Example 1, (5S)-5-({[6-(2-Cyclopropylpyrimidin-5-yl)-3,4-dihydroisoquinolin-2(1H)-yl]sulfonyl}methyl)-5-methylimidazolidine-2,4-dione], the 50% inhibitory concentration (IC50) in assay [1] is 3050 nM; in assay [2], 8.78 nM; in assay [3], > 10000 nM; in assay [4], 10.1 nM; in assay [5], > 10000 nM.
For the compound `C[C@]1(CS(=O)(=O)N2CCc3cc(-c4ccc(C5CC5)nc4)ncc3C2)NC(=O)NC1=O` [Example 2, (5S)-5-({[6-(6-Cyclopropylpyridin-3-yl)-3,4-dihydro-2,7-naphthyridin-2(1H)-yl]sulfonyl}methyl)-5-methylimidazolidine-2,4-dione], the IC50 in assay [1] was 2470 nM; in assay [2] it was 26.6 nM; in assay [3], > 10000 nM; in assay [4], 21.5 nM.
With `CC[C@]1(CS(=O)(=O)N2CCc3cc(-c4cnc(C5CC5)nc4)ccc3C2)NC(=O)NC1=O` [Example 5, (5S)-5-({[6-(2-Cyclopropylpyrimidin-5-yl)-3,4-dihydroisoquinolin-2(1H)-yl]sulfonyl}methyl)-5-ethylimidazolidine-2,4-dione], the IC50 in assay [1] was found to be 1310 nM; in assay [2], 6.9 nM; in assay [3], 8810 nM; in assay [4] it was 3.8 nM; in assay [5], 3760 nM.

One may read the IC50 as the point on the concentration scale where inhibition reaches its midpoint.
